Measured values published in patent US20140206992A1, “METHOD FOR DIAGNOSING CANCER” (THE UNIVERSITY OF TOKYO, priority 2010, published 2014).

Key:
[1] = system: γ-glutamyltranspeptidase (GGT, equine kidney); assay: Enzymatic reaction of the fluorescent probe with γ-glutamyltranspeptidase (GGT); assay type: biochemical; conditions: 5 μM compound, excitation 501 nm
Description: Compound (2) (γGlu-RhoHM) formed by binding the acyl residue derived from glutamic acid to one amino group of Compound (1) (RhoHM) was dissolved in a neutral phosphate buffer, and γ-glutamyltranspeptidase (GGT, equine kidney, SIGMA G9270-100UN) was reacted with the solution. Specifically, 3 μL of a […] of the compound in dimethyl sulfoxide (DMSO) was dissolved at a final concentration of 5 μM in 3 mL of a 0.1 M sodium phosphate buffer (pH 7.4), and GGT (1.1 U) was added for the enzymatic reaction at 37° C. The excitation wavelength was 501 nm.
The DMSO solution of the compound (5 mM) in a volume of 3 μL was dissolved in 3 mL of a 0.1 M sodium phosphate buffer (pH 7.4) at a final concentration of 5 μM, and the enzymatic reaction was performed at 37° C. The values of fluorescence intensity observed with each amount of the enzyme 9 minutes after the addition of the enzyme were plotted. The excitation wavelength was 501 nm, and the fluorescence emission wavelength was 524 nm.

[2] = system: SHIN3 cells derived from human ovarian cancer (peritoneal dissemination model); assay: Fluorescence imaging using cancer model mouse (peritoneal dissemination model); assay type: in vivo, athymic mice; conditions: 300 μL of 50 μM in PBS i.p., 30 minutes after administration, from outside the body and after abdominal section
Text: Disseminated metastasis of ovarian cancer to the peritoneum is known as a generally-occurring lethal complication of ovarian cancer. Such metastasis to the peritoneum begins to occur at a relatively early stage of ovarian cancer, the tumor invades the […], and falls into the abdominal cavity, and as a result, the tumor metastasizes to the other organs in the abdominal cavity as seeds are scattered (dissemination metastasis). In order to experimentally reproduce this phenomenon, SHIN3 cells of ovarian cancer origin were intraperitoneally administered to athymic mice to prepare a peritoneal dissemination model (Neoplasia, 8, pp. 607-612, 2006). […]
A solution of Compound (2) (γGlu-RhoHM) in PBS (50 μM) in a volume of 300 μL was intraperitoneally (i.p.) administered to the peritoneal dissemination model mice. Fluorescence imaging was performed by irradiating an excitation light of 450 to 480 nm from the outside of the mouse body under anesthesia 30 minutes after the i.p. administration, and observing fluorescence of 516 to 556 nm. Further, after the mice were sacrificed with CO2 gas, and exsanguination was performed, abdominal section was performed with surgery appliances for small animals to expose the abdominal cavity, an excitation light of 445 to 490 nm was irradiated, and fluorescence was measured at every 10 nm from 520 to 800 nm to obtain fluorescence spectrum images. […]

LAP = assay: Enzyme specificity: reaction with LAP; assay type: biochemical
Description: Enzyme specificity of Compound (2) was examined. The DMSO solution (5 mM) in a volume of 3 μL was dissolved in 3 mL of a 0.1 M sodium phosphate buffer (pH 7.4) at a final concentration of 5 μM, and LAP (0.4 U) was added to the solution to perform the enzymatic reaction at 37° C.

[3] = system: SHIN3 cells derived from human ovarian cancer (peritoneal dissemination model); assay: Live imaging of cancer model mouse using fluorescent endoscope; assay type: in vivo; conditions: 300 μL of 50 μM in PBS sprayed from endoscope tip
Text: Disseminated metastasis of ovarian cancer to the peritoneum is known as a generally-occurring lethal complication of ovarian cancer. Such metastasis to the peritoneum begins to occur at a relatively early stage of ovarian cancer, the tumor invades the […], and falls into the abdominal cavity, and as a result, the tumor metastasizes to the other organs in the abdominal cavity as seeds are scattered (dissemination metastasis). In order to experimentally reproduce this phenomenon, SHIN3 cells of ovarian cancer origin were intraperitoneally administered to athymic mice to prepare a peritoneal dissemination model (Neoplasia, 8, pp. 607-612, 2006).
The SHIN3 cells derived from human ovarian cancer were cultured at 37° C. in the RPMI 1640 medium containing 10% FBS, 100 U/mL of penicillin, and 100 μg/mL of streptomycin under 5% CO2. After the cells reached subconfluent, the cells were washed with PBS (phosphate buffered saline), and removed with Trypsin-EDTA so that individual cells were separated. The treated cells were centrifuged (100×g, 4° C., 3 minutes), and after the supernatant was discarded, ice-cooled PBS was added to the cells to suspend them at a cell density of 1×10^6 cells/300 μL. […]
A small hole was formed in the abdominal part of the peritoneal dissemination model mouse under isoflurane anesthesia, a fluorescence endoscope was inserted into the abdominal cavity through the hole, and 300 μL of a solution of Compound (2) (γGlu-RhoHM) in PBS (50 μM) was sprayed in a misty state from the tip of the endoscope. Then, an excitation light of 450 to 480 nm was irradiated, and fluorescence of 516 to 556 nm was observed over time to obtain fluorescence endoscope movies and images. In each of the results obtained immediately after the spray (0 sec), and 30 seconds, 60 seconds, 90 seconds, and 10 minutes after the spray, a white light image is shown on the left side, and a fluorescence image is shown on the right side. The “white light image” is an image obtained in a usual endoscope mode, not a fluorescence mode for comparison.

enzyme specificity (GGT versus LAP) (LAP; conclusion from the reactions with LAP (Example 3) and GGT (Example 2)): specifically detected GGT
SMILES: Nc1ccc2c(c1)Oc1cc(NC(=O)CC[C@H](N)C(=O)O)ccc1C21OCc2ccccc21 (some centres unmarked) [Compound (2), γGlu-RhoHM]
change of absorption and fluorescence intensity after reaction with GGT ([1]; 0.1 M sodium phosphate buffer pH 7.4, GGT 1.1 U, 37° C.): remarkable elevations of absorption and fluorescence intensity were immediately observed
fluorescence intensity versus added GGT amount ([1]; pH 7.4, 37° C., 9 minutes after addition of enzyme, emission 524 nm): linear increase of fluorescence intensity in an added GGT amount-dependent manner
fluorescence of cancer sites in imaging [2]: strong green fluorescence was observed in a cancer site-specific manner
increase of fluorescence intensity after reaction with LAP (LAP; 5 μM compound, 0.1 M sodium phosphate buffer pH 7.4, LAP 0.4 U, 37° C.): increase of fluorescence intensity was not observed
time to specific fluorescence emission of the cancerous part [3]: specifically emit fluorescence within several minutes
cancerous tissue fluorescence images 10 minutes after spray ([3]; 10 minutes after the spray): cancerous tissues were clearly imaged
cancerous tissue fluorescence images from immediately after spray to 90 seconds ([3]; excitation 450 to 480 nm, fluorescence 516 to 556 nm): cancerous tissue images became clearer
